Measured values reported in patent US9675580B2, “Method of treatment for enhancing exercise performance” (priority 2012, dated 2017).

What was measured:
[1] = tested on: ICR mice; assay: Rotarod test (sensorimotor function); format: in vivo, mouse; conditions: 50 mg/kg oral daily for 2 weeks, 4 to 40 rpm, vs negative control, p<0.005, FIG. 3
Description: To confirm an effect of myricetin on a sensorimotor function of a mouse, 8-week-old ICR mice were purchased from KOATECH, precultured for 1 week, and divided into two groups, each group having 5 mice. As described in Example 1, the experimental animals were divided into two groups, and then the first group was determined as a negative control, and to the second group, myricetin was orally administered daily at a concentration of 50 mg/kg using a 1 ml syringe for 2 weeks.
To measure an effect of myricetin on the sensorimotor function, a rotarod test (Panlab&Harvard, Spain) was performed on the mice in the control group and the myricetin-administered group. The rotarod test was performed to measure motor coordination (exercise adaptation) and a sense of balance of the animal (Michel Pratte et al., Behavioural brain research 216:313-320, 2011; Medina R. et al., FEBS Lett. 180(1): 77-80, 1985).
A tail of the mouse was put on a rotarod, and a speed of the rotarod was increased from 4 to 40 rpm within 5 minutes by an increase of 4 rpm at 30-second intervals. The time during which the mouse stayed on the rotarod was measured. The experiment was repeated five times, and the time during which the mouse stayed the longest on the rotarod was used as a result value.

[2] = Change in body weight of SD rats; format: in vivo, rat; conditions: 50 mg/kg for 5 days, 225 g before administration, control group 285 g, FIG. 5A
Description: 7-week-old SD rats were purchased from KOATECH, precultured for 1 week, and randomly divided into two groups, each group having 5 rats. First, 50 mg/kg of myricetin was administered into the test group, and phosphate buffered saline was administered into the control group for 5 days. A change in body weight was measured using an electric measure (CAS, China). Before administration, the body weights of the rats in each group were the same as 225 g on average, but after the end of the experiment, the body weights of the rats in the control group were 285 g on average, and the body weights of the rats in the myricetin-administered group were 275 g on average (FIG. 5A).

[3] = Daily food intake of SD rats (action metabolism meter); format: in vivo, rat; conditions: 50 mg/kg for 5 days, FIG. 5B
Description: 7-week-old SD rats were purchased from KOATECH, precultured for 1 week, and randomly divided into two groups, each group having 5 rats. First, 50 mg/kg of myricetin was administered into the test group, and phosphate buffered saline was administered into the control group for 5 days. The investigation of food intake was performed by automatically measuring the daily food intake of the phosphate buffered saline-administered mouse and the myricetin-administered mouse using an action metabolism meter (Panlab&Harvard, Spain). The average food intake was determined as an average food intake of each of the five rats in one group.

[4] = tested on: PGC-1α gene; assay: Real time PCR gene expression in mouse myotube: PGC-1α; format: cell-based; conditions: C2C12 myotubes, 10, 30 and 100 μM, 16 hours, corrected with β-actin, FIG. 4A
Description: (§1) Mouse myoblasts were purchased from the Korean Cell Line Bank (KCLB), and base sequences of primers for β-actin, SIRT-1, PGC-1α, NRF-1 and PPAR-δ genes were as follows:
(§2) 1×10^7 C2C12 (mouse myoblasts) differentiated into myotubes using 2% horse serum […]. The mouse myotube was treated with myricetin by concentration and cultured for 16 hours, RNA was extracted from the myotube using TRizol, and then cDNA was synthesized through reverse transcription PCR (RT-PCR).
(§3) Real time PCR was performed using β-actin as a control and the primers for respective genes (95° C. for 3 minutes, <95° C. for 10 seconds, 60° C. for 10 seconds, 72° C. for 30 seconds>−39 cycles, 95° C. for 10 seconds, 65° C. for 5 seconds). The PGC-1α, NRF-1, PPAR-δ, and SIRT-1 were corrected with the β-actin, and the resulting value was obtained.

[5] = tested on: SIRT-1 gene; assay: Real time PCR gene expression in mouse myotube: SIRT-1; format: cell-based; conditions: C2C12 myotubes, 10, 30 and 100 μM, 16 hours, corrected with β-actin, FIG. 4D
Description: as §1, §2, §3

[6] = tested on: NRF-1 gene; assay: Real time PCR gene expression in mouse myotube: NRF-1; format: cell-based; conditions: C2C12 myotubes, 10, 30 and 100 μM, 16 hours, corrected with β-actin, FIG. 4B
Description: as §1, §2, §3

[7] = tested on: ICR mice; assay: Treadmill run to exhaustion (endurance exercise capacity); format: in vivo, mouse; conditions: 50 mg/kg oral daily for two weeks, vs phosphate buffered saline control, p<0.0005, FIG. 1
Description: Ten 8-week-old ICR mice were purchased from KOATECH, precultured for 1 week, and then divided into two groups, each group having five mice. The first group was set up as a negative control by administering phosphate buffered saline, and to the second group, myricetin was orally administered daily at a concentration of 50 mg/kg for two weeks. To measure a change in endurance exercise capacity due to myricetin, the animals in the negative control and the myricetin-administered group were run on a treadmill (Panlab&Harvard, Spain). An exercise performance protocol was configured to make the mice run until exhaustion at 25 cm/sec for 20 minutes, 30 cm/sec for 20 minutes, 33 cm/sec for 20 minutes, 36 cm/sec for 20 minutes and 36 cm/sec for 15 minutes with a gradient of 5°, and 30 cm/sec for 15 minutes and 41 cm/sec with a gradient of 10°. To adapt the mice to running on the treadmill, the day before the experiment, they were run at 27 cm/sec for 10 minutes with a gradient of 5°. The mice were not fed for two hours before the running on the treadmill on the day of the experiment, and then the maximum exercise capacity of the experimental animals was measured after the running on the treadmill. […]

[8] = tested on: PPAR-δ gene; assay: Real time PCR gene expression in mouse myotube: PPAR-δ; format: cell-based; conditions: C2C12 myotubes, 10, 30 and 100 μM, 16 hours, corrected with β-actin, FIG. 4C
Description: as §1, §2, §3

[9] = tested on: ICR-series mice; assay: Grip strength test (maximum muscle strength); format: in vivo, mouse; conditions: 50 mg/kg oral daily for two weeks, vs negative control, p<0.005 / p<0.00005, FIGS. 2A and 2B
Description: To measure an effect of myricetin on enhancing endurance exercise capacity of a mouse, ten 8-week-old ICR-series mice having a body weight of 30±5 g were used. As described in Example 1, the experimental animals were divided into two groups. The first group was determined as a negative control, and to the second group, myricetin was orally administered daily at a concentration of 50 mg/kg for two weeks. To measure a change in the maximum strength of a muscle due to myricetin, a grip strength test (Bioseb, France) was performed on the animals in the control group and the myricetin-administered group. Maximum grip strengths of the front paws and rear paws were measured by pulling a tail of the mouse backward while the mouse grabbed a grip strength tester. The grip strength was measured three times, and an average value was used.

SMILES: O=c1c(O)c(-c2cc(O)c(O)c(O)c2)oc2cc(O)cc(O)c12 [myricetin, 3,5,7-trihydroxy-2-(3,4,5-trihydroxyphenyl)-4-chromenone]
- time during which the mouse stayed on the rotarod [1]: longer
- body weight on average after the end of the experiment [2]: 275 g
- average daily food intake vs phosphate buffered saline-administered group [3]: smaller
- expression of PGC-1α compared to the control group [4]: increased two to three times
- expression of SIRT-1 compared to the control group [5]: increased two to three times
- expression of NRF-1 compared to the control group [6]: increased two to three times
- time run on the treadmill until exhaustion (maximum exercise capacity) [7]: longer
- expression of PPAR-δ compared to the control group [8]: increased two to three times
- maximum grip strength of front paws and rear paws (maximum muscle strength) [9]: increased
